15 compounds from US20250313552A1, “NICOTINATE ESTERS AND THERAPEUTIC METHODS OF USE THEREOF” (New Frontier Bio, Inc., priority 2024, published 2025) can be followed below.

This assay concerns Keratinocytes. In words: NAD assay in keratinocytes (NAD+ increase). Format: cell-based. As to conditions: 3 hours incubation with compound, normalized NAD, ratio vs PBS control. As to the method:
Keratinocytes were plated in 12-well tissue culture plates at a density of 200,000 cells per well. The wells contained 0.75 mL DMEM growth medium with 2% HI FBS and cells were incubated overnight at 37° C. at 5% CO2. The following day, cells were dosed with the desired concentration of each compound and incubated for 3 hours. Following the incubation period, cell monolayers were washed with 200 μL of PBS. Cells were then allowed to lift using 0.25% trypsin for 15 minutes. After lifting, cells were collected into a sterile 1.5 mL centrifuge tube containing 400 μL of DMEM with 2% HI FBS. The cell lysates then centrifuged at 500×g for 5 minutes. Following this, the supernatant was aspirated off of the cell pellet and cells were washed again in 200 μL of PBS and centrifuged at 500×g for 5 minutes. PBS was aspirated off of the cell pellet and 400 μL of cold extraction buffer was added. Each centrifuge tube was then vortexed for 10 seconds. The resulting samples were centrifuged at 13,000×g for 10 minutes at 4° C. to remove insoluble material. After centrifuging, 50 μL of each sample was used to determine in duplicates the total protein concentration by a BCA protein assay kit. The remaining samples were then deproteinized by centrifuging and filtering them through a 10 kDa cut-off spin filter at 13,000xg for 10 minutes at 4° C. Following deproteinization, the samples were loaded into a 96 well plate in duplicates. The amount loaded was dependent on their protein concentration to ensure a uniform protein content for each sample. The final volume in the well was brought up to 50 μL using the cell extraction buffer. 50 μL of each standard was added to the appropriate wells. 98 μL of cycling buffer and 2 μL of NAD cycling enzyme were added to each well and the wells were incubated at room temperature for 5 minutes. 10 μL of developer was added to each well and the plate was incubated at room temperature for one hour. The reaction was stopped by adding 10 μL of stop solution to each well. The absorbance of each well was measured at 450 nm using a plate reader. A standard curve was plotted and normalized NAD values were determined.
As for `O=C(OCc1cc(=O)c(OC(=O)c2cccnc2)co1)c1cccnc1` [Compound 5, (5-(nicotinoyloxy)-4-oxo-4H-pyran-2-yl)methyl nicotinate], the “NAD+ increase ratio compared to PBS control” value (shortened to “NAD+ increase ratio”) turned out to be 1.51.

As to `O=C(/C=C/C=C/c1ccc2c(c1)OCO2)NCCOC(=O)c1cccnc1` [Compound 10, 2-((2E,4E)-5-(benzo[d][1,3]dioxol-5-yl)penta-2,4-dienamido)ethyl nicotinate], the “NAD+ increase ratio” value came to 1.57.

As for `NC(=O)c1ccc[n+]([C@@H]2O[C@H](COC(=O)CCCCC3CCSS3)[C@@H](OC(=O)CCCCC3CCSS3)[C@H]2OC(=O)CCCCC2CCSS2)c1` (stereo partly drawn) [Compound 12, 1-((2R,3R,4R,5R)-3,4-bis((5-(1,2-dithiolan-3-yl)pentanoyl)oxy)-5-(((5-(1,2-dithiolan-3-yl)pentanoyl)oxy)methyl)tetrahydrofuran-2-yl)-3-carbamoylpyridin-1-ium], the “NAD+ increase ratio” value was determined as 1.16.

`CCCCCCCCCCCCCCCC(=O)OC[C@H](OC(=O)c1cccnc1)[C@H]1OC(=O)C(OC(=O)c2cccnc2)=C1OC(=O)c1cccnc1` [Compound 4, (R)-2-((S)-1-(nicotinoyloxy)-2-(palmitoyloxy)ethyl)-5-oxo-2,5-dihydrofuran-3,4-diyl dinicotinate]: the “NAD+ increase ratio” value was determined as 3.04.

With `CCCCCCCCCCCCCCCC(=O)OC[C@@H](O)[C@@H]1OC(=O)C(OC(=O)c2cccnc2)=C1O` [Compound 2, (S)-4-hydroxy-5-((R)-1-hydroxy-2-(palmitoyloxy)ethyl)-2-oxo-2,5-dihydrofuran-3-yl nicotinate], the “NAD+ increase ratio” value is 2.53.

As to `O=C(CCC[P+](c1ccccc1)(c1ccccc1)c1ccccc1)NCCOC(=O)c1cccnc1` [Compound 9, (4-((2-(nicotinoyloxy)ethyl)amino)-4-oxobutyl)triphenylphosphonium], the “NAD+ increase ratio” value turned out to be 1.67.

Take `CCCCCCCCCCCCCCCC(=O)OC[C@@H](O)[C@@H]1OC(=O)C(O)=C1OC(=O)c1cccnc1` [Compound 3, (S)-4-hydroxy-2-((R)-1-hydroxy-2-(palmitoyloxy)ethyl)-5-oxo-2,5-dihydrofuran-3-yl nicotinate]: the “NAD+ increase ratio” value is 2.77.

In the case of `O=C1O[C@H]([C@@H](O)COC(=O)c2cccnc2)C(O)=C1O[C@H]1O[C@H](CO)[C@@H](O)[C@H](O)[C@H]1O` [Compound 8, (S)-2-hydroxy-2-((R)-3-hydroxy-5-oxo-4-(((2R,3R,4S,5S,6R)-3,4,5-trihydroxy-6-(hydroxymethyl)tetrahydro-2H-pyran-2-yl)oxy)-2,5-dihydrofuran-2-yl)ethyl nicotinate], the “NAD+ increase ratio” value stood at 1.5.

On to `CCCCCCCCCCCCCCCC(=O)OC[C@H](O)[C@H]1OC(=O)C(OC(=O)c2cccnc2)=C1OC(=O)c1cccnc1` [Compound 14, (R)-2-((S)-1-hydroxy-2-(palmitoyloxy)ethyl)-5-oxo-2,5-dihydrofuran-3,4-diyl dinicotinate], for which the “NAD+ increase ratio” value is on record as 8.33.

For the compound `NC(=O)c1ccc[n+]([C@@H]2O[C@H](COC(=O)c3cccnc3)[C@@H](OC(=O)c3cccnc3)[C@H]2OC(=O)c2cccnc2)c1` [Compound 13, 1-((2R,3R,4R,5R)-3,4-bis(nicotinoyloxy)-5 ((nicotinoyloxy)methyl)tetrahydrofuran-2-yl)-3-carbamoylpyridin-1-ium], the “NAD+ increase ratio” value is 1.67.

In the case of `CC(C)(COC(=O)c1cccnc1)C(OC(=O)c1cccnc1)C(=O)NCCCOC(=O)c1cccnc1` (stereo not drawn) [Compound 11, 2,2-dimethyl-4-((3-(nicotinoyloxy)propyl)amino)-4-oxobutane-1,3-diyl dinicotinate], the “NAD+ increase ratio” value was determined as 2.7.

As to `O=C1O[C@H]([C@@H](O)COC(=O)c2cccnc2)C(O)=C1O` [Compound 6, (S)-2-((R)-3,4-dihydroxy-5-oxo-2,5-dihydrofuran-2-yl)-2-hydroxyethyl nicotinate], the “NAD+ increase ratio” value is on record as 0.99.

`CCCCCCCCCCCCCCCC(=O)OC[C@@H](O)[C@@H]1OC(=O)C(OC(=O)c2cccnc2)=C1OC(=O)c1cccnc1` [Compound 1, (S)-2-((R)-1-hydroxy-2-(palmitoyloxy)ethyl)-5-oxo-2,5-dihydrofuran-3,4-diyl dinicotinate]: the “NAD+ increase ratio” value came out at 8.19.

Turning to `O=C1O[C@H]([C@@H](O)COC(=O)c2cccnc2)C(O)=C1O[C@H]1O[C@H](COC(=O)c2cccnc2)[C@@H](O)[C@H](O)[C@H]1O` [Compound 7, (S)-2-hydroxy-2-((R)-3-hydroxy-5-oxo-4-(((2R,3R,4S,5S,6R)-3,4,5-trihydroxy-6-((nicotinoyloxy)methyl)tetrahydro-2H-pyran-2-yl)oxy)-2,5-dihydrofuran-2-yl)ethyl nicotinate], the “NAD+ increase ratio” value is reported as 1.5.

Turning to `CCCCCCCCCCCCCCCC(=O)OC[C@@H](O)[C@H]1OC(=O)C(OC(=O)c2cccnc2)=C1OC(=O)c1cccnc1` [Compound 15, (R)-2-((R)-1-hydroxy-2-(palmitoyloxy)ethyl)-5-oxo-2,5-dihydrofuran-3,4-diyl dinicotinate], the “NAD+ increase ratio” value is 1.84.
